The subject of the assay is MIN6 insulin promoter GFP reporter, high-content imaging. The assay is described as follows: decrease of insulin promoter-GFP reporter – imaging, high-content screening, mouse beta cells (AID 1628).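 Note: potency for lowering insulin promoter GFP signal so compounds are inhibitors.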

Where “and” joins values, the source holds several entries; their conditions need not be identical. Identical values can stand only once.

One may read the IC50 as the concentration that gives 50% inhibition.

Turning to `CN(C)c1ccnc2c[cH-]cc12.[Fe].c1ccc(-[c-]2[c-](-c3ccccc3)[c-](-c3ccccc3)[c-](-c3ccccc3)[c-]2-c2ccccc2)cc1` (stereo unspecified), the IC50 was 2630 nM and 1620 nM.

Source of the values: PubChem BioAssay AID1628 (Sanford-Burnham Center for Chemical Genomics, 2009).
